Results on 44 compounds are retold here after patent US12617773B2, “Azetidin-3-ylmethanol derivatives as CCR6 receptor modulators” (Idorsia Pharmaceuticals Ltd, priority 2020, dated 2026).

For the first assay, the target named is T1, human CCR6 (Homo sapiens, UniProt P51684).
T1 construct: expressed in transfected cells; host or cells: HEK-293
T1 sequence (P51684 1-374): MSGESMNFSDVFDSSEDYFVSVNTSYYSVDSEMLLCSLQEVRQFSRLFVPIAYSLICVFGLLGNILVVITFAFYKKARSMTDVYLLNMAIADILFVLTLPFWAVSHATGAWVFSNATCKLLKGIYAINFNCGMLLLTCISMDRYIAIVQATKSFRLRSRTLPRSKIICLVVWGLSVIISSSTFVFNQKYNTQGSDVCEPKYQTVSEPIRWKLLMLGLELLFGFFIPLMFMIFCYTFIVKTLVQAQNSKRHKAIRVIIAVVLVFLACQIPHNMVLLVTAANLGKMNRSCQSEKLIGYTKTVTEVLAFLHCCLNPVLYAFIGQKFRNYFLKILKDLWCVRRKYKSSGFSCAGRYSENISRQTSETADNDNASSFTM
Briefly: FLIPR assay (inhibition of CCL20-induced calcium signal). The settings on record: FLIPR IC50 (nM), HEK-293 cells expressing human CCR6; mean values where determined several times. It counts as cell-based. In short, it runs like this:
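Dye-loaded HEK-293 cells expressing human CCR6 were preincubated with compound for 30 min at room temperature in the dark, then challenged with 10 nM CCL20 (final). Fluorescence was tracked on FLIPR, and baseline-subtracted peak emission over base after agonist addition gave inhibition dose-response curves for IC50.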
`CC(C)c1ccc([C@](O)(c2cncc(N3C4CCC3CC4)c2)C2(C)CN(C)C2)cc1` [Example 177]: the half-maximal inhibitory concentration (IC50) was 284 nM.

Staying with this assay, now noted: HEK-293 cells expressing human CCR6; mean values where determined several times; read-out: FLIPR IC50.
For `CC(C)c1ccc([C@](O)(c2cncc(-c3noc(CNC(=O)CO)n3)c2)C2(C)CN(C)C2)cc1` [Example 335], the IC50 amounted to 337 nM.
The same measure, in the same setting: the figure for `CC(C)c1ccc(C(O)(c2cncc(N3CC[C@H](C(C)C)C3)c2)C2(C)CN(C)C2)cc1` (stereo partly drawn) [Example 223, (1,3-Dimethyl-azetidin-3-yl)-(4-isopropyl-phenyl)-[5-((R)-3-isopropyl-pyrrolidin-1-yl)-pyridin-3-yl]-methanol] is 29 nM; for `CC(C)c1ccc([C@](O)(c2cncc(-c3noc(C(F)(F)CO)n3)c2)C2(C)CN(C)C2)cc1` [Example 505] it is 35.9 nM; for `CC(=O)NC(C)(C)C#Cc1cc([C@@](O)(c2ccc(C(C)C)cc2)C2(C)CN(C)C2)cnn1` [Example 663] it is 992 nM.
`CC(C)c1ccc([C@](O)(c2cncc(C#Cc3cnn(C)c3)c2)C2(C)CN(C)C2)cc1` [Example 23]: the 50% inhibitory concentration (IC50) amounted to 46.8 nM.
In the case of `CC(C)c1ccc([C@](O)(c2cncc(-c3noc(CC(C)(C)O)n3)c2)C2(C)CN(C)C2)cc1` [Example 130], the concentration for half-maximal inhibition (IC50) is 74.7 nM.
On the same count and under the same terms, the figure for `Cc1ccc([C@](O)(c2cncc(N3CCCC3)c2)C2(C)CN(C)C2)cc1` [Example 311] is 140 nM; for `CC(C)c1ccc([C@](O)(c2cncc(N3C[C@@H]4C[C@H]3CO4)c2)C2(C)CN(C)C2)cc1` [Example 234] it is 123 nM.
`CC(=O)NC(C)(C)C#Cc1cncc([C@@](O)(c2ccc(C(C)C)cc2)C2(C)CN(C)C2)c1` [Example 621]: the concentration for half-maximal inhibition (IC50) was 235 nM.
Consider `CC(C)c1ccc([C@](O)(c2cncc(N3CCC(c4ccccc4)C3)c2)C2(C)CN(C)C2)cc1` (some centres unmarked) [Example 232], for which the IC50 is 46.7 nM.
Regarding `COC(C)(C)c1nc(-c2cncc([C@@](O)(c3ccc(C(C)C)cc3)C3(C)CN(C)C3)c2)no1` [Example 118], the half-inhibitory concentration (IC50) came out at 43.1 nM.
Same read-out and setting: the result for `COCCC1CCN(c2cc([C@@](O)(c3ccc(C(C)C)cc3)C3(C)CN(C)C3)cnn2)C1=O` (some centres unmarked) [Example 442] reads 177 nM; that for `CC(C)c1ccc([C@](O)(c2cncc(-c3nc(CN4CCOCC4)no3)c2)C2(C)CN(C)C2)cc1` [Example 89], 231 nM.
Regarding `CC(C)c1ccc([C@](O)(c2cncc(CCC(O)C3CCOCC3)c2)C2(C)CN(C)C2)cc1` (some centres unmarked) [Example 63], the IC50 worked out at 601 nM.
For the compound `CN1CC(C)(C(O)(c2ccc(OC(F)(F)F)cc2)c2cncc(-n3cccn3)c2)C1` (centres unmarked) [Example 265], the IC50 was 90.6 nM.
For the compound `CC(C)c1ccc([C@](O)(c2cncc(-c3noc([C@H]4C[C@@H](C)O[C@@H](C)C4)n3)c2)C2(C)CN(C)C2)cc1` [Example 125], the half-maximal inhibitory concentration (IC50) was found to be 46.9 nM.
The same measure, in the same setting: the figure for `CC(C)c1ccc([C@](O)(c2cncc(N3C[C@@H](C)O[C@H](C)C3)c2)C2(C)CN(C)C2)cc1` [Example 229] is 59.1 nM; for `CCC(CC)c1ccc(C(O)(c2cncc(-c3noc(C(C)(C)O)n3)c2)C2(C)CN(C)C2)cc1` (centres unmarked) [Example 562] it is 44.7 nM; for `CC(C)c1ccc([C@](O)(c2cncc(-c3noc(C4(C)CCN(C)C4=O)n3)c2)C2(C)CN(C)C2)cc1` (some centres unmarked) [Example 352] it is 110 nM.
On to `COCCN1CC(C)([C@](O)(c2ccc(C(C)C)cc2)c2cncc(-c3noc(C4CCN(C(C)=O)CC4)n3)c2)C1` [Example 582], for which the 50% inhibitory concentration (IC50) worked out at 485 nM.
As to `Cc1cc([C@](C)(O)C#Cc2cncc([C@@](O)(c3ccc(C(C)C)cc3)C3(C)CN(C)C3)c2)ncn1` [Example 400], the IC50 came to 160 nM.
Regarding `CC(=O)N(C)C1(Cc2nc(-c3cncc([C@@](O)(c4ccc(C(C)C)cc4)C4(C)CN(C)C4)c3)no2)CC1` [Example 463, N-[1-(3-{5-[(R)-(1,3-Dimethyl-azetidin-3-yl)-hydroxy-(4-isopropyl-phenyl)-methyl]-pyridin-3-yl}-[1,2,4]oxadiazol-5-ylmethyl)-cyclopropyl]-N-methyl-acetamide], the IC50 was 122 nM.
Same read-out and setting: the figure for `CC1([C@](O)(c2ccc(OC(F)(F)F)cc2)c2cncc(N3CCCC3)c2)CN(C2CCC2)C1` [Example 7] is 54.3 nM; for `Cc1cc(-c2nc(-c3cncc([C@@](O)(c4ccc(C(C)C)cc4)C4(C)CN(C)C4)c3)no2)ncn1` [Example 508] it is 49.1 nM; for `CN1CC(C)([C@](O)(c2ccc(C3(C(F)(F)F)CC3)cc2)c2cncc(N3C[C@@H]4C[C@H]3CO4)c2)C1` [Example 241] it is 128 nM.
The same measure, in the same setting: the figure for `CC(C)c1ccc([C@](O)(c2cncc(-c3noc(C4CCCOC4)n3)c2)C2(C)CN(C)C2)cc1` (some centres unmarked) [Example 115] is 41 nM.
Turning to `CC(C)c1ccc([C@](O)(c2cncc(C#CC(C)(O)c3cccn3C)c2)C2(C)CN(C)C2)cc1` (some centres unmarked) [Example 651], the concentration for half-maximal inhibition (IC50) is 16.1 nM.
Take `COC1CCC(Oc2cncc([C@@](O)(c3ccc(C(C)C)cc3)C3(C)CN(C)C3)c2)C1` (some centres unmarked) [Example 253]: the half-inhibitory concentration (IC50) is 13.1 nM.
`Cc1nc(C(O)CCc2cncc([C@@](O)(c3ccc(C(C)C)cc3)C3(C)CN(C)C3)c2)cs1` (some centres unmarked) [Example 66]: the IC50 came to 223 nM.
As for `Cc1ncc(C2CC(=O)N(c3cncc([C@@](O)(c4ccc(C(C)C)cc4)C4(C)CN(C)C4)c3)C2)s1` (some centres unmarked) [Example 672], the 50% inhibitory concentration (IC50) was 172 nM.
Same read-out and setting: the result for `COc1cccc(-c2nc(-c3cncc([C@@](O)(c4ccc(C(C)C)cc4)C4(C)CN(C)C4)c3)no2)c1` [Example 506] reads 24 nM.
Regarding `CC(=O)N1CCC(c2nc(-c3cncc([C@@](O)(c4ccc(CC(F)(F)F)cc4)C4(C)CN(C)C4)c3)no2)CC1` [Example 576], the 50% inhibitory concentration (IC50) was 267 nM.
As to `CC(C)c1ccc([C@](O)(c2cncc(C#CC(C)(O)c3cccc(F)c3)c2)C2(C)CN(C)C2)cc1` (some centres unmarked) [Example 32], the IC50 was determined as 18.7 nM.
For the compound `CC(C)c1ccc([C@](O)(c2cncc(-c3noc(C4CCN(C(=O)C(C)(C)C)CC4)n3)c2)C2(C)CN(C)C2)cc1` [Example 371], the IC50 was found to be 49.7 nM.
The same measure, in the same setting: the result for `CC1CCC(c2cncc([C@@](O)(c3ccc(C(C)C)cc3)C3(C)CN(C)C3)c2)O1` (some centres unmarked) [Example 319] reads 94.4 nM; that for `CC(=O)N1CCC(c2nc(-c3cncc([C@@](O)(c4ccc(C(C)C)cc4)C4(C)CN(CC5CC5)C4)c3)no2)CC1` [Example 581], 113 nM.
On to `CC(C)c1ccc([C@](O)(c2cncc(C#CC3CCN(S(C)(=O)=O)CC3)c2)C2(C)CN(C)C2)cc1` [Example 603], for which the IC50 was found to be 31.2 nM.
`CC(=O)N1CCC(c2nc(-c3cncc(C(O)(c4ccc(CC(C)(C)C)cc4)C4(C)CN(C)C4)c3)no2)CC1` (centres unmarked) [Example 565]: the IC50 is 116 nM.
As for `COC(C)(C)c1noc(-c2cncc([C@@](O)(c3ccc(C(C)C)cc3)C3(C)CN(C)C3)c2)n1` [Example 100], the half-maximal inhibitory concentration (IC50) was 69.9 nM.
Take `CC(C)c1ccc([C@](O)(c2cncc(N3CC(C4CCOCC4)OC3=O)c2)C2(C)CN(C)C2)cc1` (some centres unmarked) [Example 199]: the half-inhibitory concentration (IC50) was 487 nM.
`CC(C)c1ccc([C@](O)(c2cncc(N3CCCCC3)c2)C2(C)CN(C)C2)cc1` [Example 176]: the IC50 came to 39.2 nM.
As for `CCN1CC(c2nc(-c3cncc([C@@](O)(c4ccc(C(C)C)cc4)C4(C)CN(C)C4)c3)no2)CC1=O` (single isomer, unassigned) [Example 510], the IC50 came to 184 nM.
For `CC(C)c1ccc([C@](O)(c2cncc(N3CC(C)(C)OC3=O)c2)C2(C)CN(C)C2)cc1` [Example 200], the IC50 worked out at 407 nM.

The IC50 is the midpoint of a concentration-inhibition curve.
